This note sets out measurements from paper PMC5218480 (PLoS ONE, 2017).

In the assay the test system is MV-4-11 cells. Briefly: Gene expression microarray analysis (Affymetrix PrimeView) and GSEA. To be noted: ProbeSet 11715478_a_at; LIST B. On the set-up: RFU PODN (11730768_x_at) / Fold change /veh PODN (11730768_x_at) / RFU LINC00158 (11744669_a_at) / Fold change /veh LINC00158 (11744669_a_at) / RFU DUSP10 (11751237_a_at) / Fold change /veh DUSP10 (11751237_a_at) / RFU ID3 (11757404_x_at) / Fold change /veh ID3 (11757404_x_at) / RFU PLEKHG5 (11737974_s_at) / Fold change /veh PLEKHG5 (11737974_s_at) / RFU LRRC4B (11730491_at) / Fold change /veh LRRC4B (11730491_at) / RFU GIMAP4 (11747438_a_at) / Fold change /veh GIMAP4 (11747438_a_at) / RFU KRT8 (11758183_x_at) / Fold change /veh KRT8 (11758183_x_at) / RFU CNN1 (11734310_a_at) / Fold change /veh CNN1 (11734310_a_at) / RFU VPS37D (11726825_at) / Fold change /veh VPS37D (11726825_at) / RFU C10orf10 (11716522_x_at) / Fold change /veh C10orf10 (11716522_x_at) / RFU KIR2DL2 /// KIR2DL4 /// KIR2DL5A /// KIR2DL5B /// KIR2DS1 /// KIR2DS2 /// KIR2DS3 /// KIR2DS4 /// KIR3DL3 /// KIR3DL3 /// KIR3DS1 (11738374_at) / Fold change /veh KIR2DL2 /// KIR2DL4 /// KIR2DL5A /// KIR2DL5B /// KIR2DS1 /// KIR2DS2 /// KIR2DS3 /// KIR2DS4 /// KIR3DL3 /// KIR3DL3 /// KIR3DS1 (11738374_at) / RFU C1QL1 (11718748_at) / Fold change /veh C1QL1 (11718748_at) / RFU TMPRSS4 (11747572_a_at) / Fold change /veh TMPRSS4 (11747572_a_at) / RFU HAMP (11756126_x_at) / Fold change /veh HAMP (11756126_x_at) / RFU RNFT2 (11725882_a_at) / Fold change /veh RNFT2 (11725882_a_at) / RFU NR4A2 (11747474_a_at) / Fold change /veh NR4A2 (11747474_a_at) / RFU ABCC12 (11746883_a_at) / Fold change /veh ABCC12 (11746883_a_at) / RFU TMEM136 (11760407_x_at) / Fold change /veh TMEM136 (11760407_x_at) / RFU CLDN22 /// WWC2 (11732394_at) / Fold change /veh CLDN22 /// WWC2 (11732394_at) / RFU HLA-DPB1 (11760878_x_at) / Fold change /veh HLA-DPB1 (11760878_x_at) / RFU SPINT1 (11716480_a_at) / Fold change /veh SPINT1 (11716480_a_at) / RFU GAP43 (11754022_s_at) / Fold change /veh GAP43 (11754022_s_at) / RFU A4GNT (11735810_at) / Fold change /veh A4GNT (11735810_at) / RFU PRB3 (11715151_x_at) / Fold change /veh PRB3 (11715151_x_at) / RFU TUBB4B (11761932_at) / Fold change /veh TUBB4B (11761932_at) / RFU CAPN14 (11732068_a_at) / Fold change /veh CAPN14 (11732068_a_at) / RFU TMCC2 (11721928_a_at) / Fold change /veh TMCC2 (11721928_a_at) / RFU IRGQ (11745062_a_at) / Fold change /veh IRGQ (11745062_a_at) / RFU FAM174B (11720279_a_at) / Fold change /veh FAM174B (11720279_a_at) / RFU TMPRSS4 (11748680_a_at) / Fold change /veh TMPRSS4 (11748680_a_at) / RFU FAM212B (11763350_a_at) / Fold change /veh FAM212B (11763350_a_at) / RFU PLEKHG5 (11743358_a_at) / Fold change /veh PLEKHG5 (11743358_a_at) / RFU ZSCAN30 (11745921_a_at) / Fold change /veh ZSCAN30 (11745921_a_at) / RFU CMKLR1 (11741424_a_at) / Fold change /veh CMKLR1 (11741424_a_at) / RFU LOC101060620 /// MAPK8IP1 (11723275_at) / Fold change /veh LOC101060620 /// MAPK8IP1 (11723275_at) / RFU SPTSSB (11747773_x_at) / Fold change /veh SPTSSB (11747773_x_at) / RFU PRSS12 (11739890_at) / Fold change /veh PRSS12 (11739890_at) / RFU BIN1 (11741810_x_at) / Fold change /veh BIN1 (11741810_x_at) / RFU WNT11 (11732464_a_at) / Fold change /veh WNT11 (11732464_a_at) / RFU C10orf10 (11716521_a_at) / Fold change /veh C10orf10 (11716521_a_at) / RFU C5orf56 (11738089_at) / Fold change /veh C5orf56 (11738089_at) / RFU CYB561 (11721691_x_at) / Fold change /veh CYB561 (11721691_x_at) / RFU ANKRD19P (11752326_a_at) / Fold change /veh ANKRD19P (11752326_a_at) / RFU OR2T12 /// OR2T33 /// OR2T8 (11738714_s_at) / Fold change /veh OR2T12 /// OR2T33 /// OR2T8 (11738714_s_at) / RFU VCAN (11748164_a_at) / Fold change /veh VCAN (11748164_a_at) / RFU JSRP1 (11732532_at) / Fold change /veh JSRP1 (11732532_at) / RFU KRTAP10-11 (11738290_x_at) / Fold change /veh KRTAP10-11 (11738290_x_at) / RFU MYO3A (11730013_a_at) / Fold change /veh MYO3A (11730013_a_at) / RFU EBF3 (11725865_a_at) / Fold change /veh EBF3 (11725865_a_at) / RFU CAMK2N1 (11719241_x_at) / Fold change /veh CAMK2N1 (11719241_x_at) / RFU C5orf56 (11738088_a_at) / Fold change /veh C5orf56 (11738088_a_at) / RFU OLFML3 (11715873_a_at) / Fold change /veh OLFML3 (11715873_a_at) / RFU LOC100653217 /// NTM (11731650_a_at) / Fold change /veh LOC100653217 /// NTM (11731650_a_at) / RFU MAPK11 (11762145_a_at) / Fold change /veh MAPK11 (11762145_a_at) / RFU FIZ1 (11724087_x_at) / Fold change /veh FIZ1 (11724087_x_at) / RFU OASL (11726364_x_at) / Fold change /veh OASL (11726364_x_at) / RFU SOX15 (11748057_x_at) / Fold change /veh SOX15 (11748057_x_at) / RFU CD79A (11719716_a_at) / Fold change /veh CD79A (11719716_a_at) / RFU HIST1H1D (11736915_at) / Fold change /veh HIST1H1D (11736915_at) / RFU CASKIN2 (11723855_a_at) / Fold change /veh CASKIN2 (11723855_a_at) / RFU LOC730098 (11760151_x_at) / Fold change /veh LOC730098 (11760151_x_at) / RFU OR4N2 (11742367_at) / Fold change /veh OR4N2 (11742367_at) / RFU PRRT2 (11749266_a_at) / Fold change /veh PRRT2 (11749266_a_at) / RFU SNX32 (11753110_a_at) / Fold change /veh SNX32 (11753110_a_at) / RFU CDHR5 (11726645_a_at) / Fold change /veh CDHR5 (11726645_a_at) / RFU RCAN1 (11760418_a_at) / Fold change /veh RCAN1 (11760418_a_at) / RFU FAM167A (11723789_a_at) / Fold change /veh FAM167A (11723789_a_at) / RFU FAM26E (11764081_at) / Fold change /veh FAM26E (11764081_at) / RFU ISYNA1 (11749810_s_at) / Fold change /veh ISYNA1 (11749810_s_at) / RFU ACY1 (11761880_at) / Fold change /veh ACY1 (11761880_at) / RFU 11764098_at / Fold change /veh 11764098_at / RFU SAMD14 (11745864_x_at) / Fold change /veh SAMD14 (11745864_x_at) / RFU NPB (11741838_a_at) / Fold change /veh NPB (11741838_a_at) / RFU TMPRSS6 (11731388_a_at) / Fold change /veh TMPRSS6 (11731388_a_at) / RFU KRTAP10-2 (11738614_at) / Fold change /veh KRTAP10-2 (11738614_at) / RFU ARHGAP8 /// PRR5-ARHGAP8 (11727945_x_at) / Fold change /veh ARHGAP8 /// PRR5-ARHGAP8 (11727945_x_at) / RFU KRTAP5-7 /// NADSYN1 (11734609_at) / Fold change /veh KRTAP5-7 /// NADSYN1 (11734609_at) / RFU RASL12 (11751679_a_at) / Fold change /veh RASL12 (11751679_a_at) / RFU CDKN2B (11736163_a_at) / Fold change /veh CDKN2B (11736163_a_at) / RFU PRF1 (11729649_at) / Fold change /veh PRF1 (11729649_at) / RFU, ZNF638 /// ZNF638-IT1 / Fold change vs veh, ZNF638 /// ZNF638-IT1 / RFU, PANK3 / Fold change vs veh, PANK3 / RFU, SH3YL1 / Fold change vs veh, SH3YL1 / RFU, ZEB2 / Fold change vs veh, ZEB2 / RFU, NRIP1 / Fold change vs veh, NRIP1 / RFU, PTTG1IP / Fold change vs veh, PTTG1IP / RFU, CAPN2 / Fold change vs veh, CAPN2 / RFU, MED14 / Fold change vs veh, MED14 / RFU, SNORA58 / Fold change vs veh, SNORA58 / RFU, C1orf63 / Fold change vs veh, C1orf63 / RFU, LRRFIP1 / Fold change vs veh, LRRFIP1 / RFU, NDUFAF7 / Fold change vs veh, NDUFAF7 / RFU, SLC12A2 / Fold change vs veh, SLC12A2 / RFU, IBTK / Fold change vs veh, IBTK / RFU, ESF1 / Fold change vs veh, ESF1 / Fold change vs veh, TMEM50B / RFU, TAOK1 / Fold change vs veh, TAOK1 / RFU, ACBD3 / Fold change vs veh, ACBD3 / RFU, TMA16 / Fold change vs veh, TMA16 / RFU, RWDD3 / Fold change vs veh, RWDD3 / RFU, BCAT1 / Fold change vs veh, BCAT1 / RFU, EDEM3 / Fold change vs veh, EDEM3 / RFU, TMEM33 / Fold change vs veh, TMEM33 / RFU, WDR75 / Fold change vs veh, WDR75 / RFU, AHCTF1 / Fold change vs veh, AHCTF1 / RFU, TFRC / Fold change vs veh, TFRC / RFU, ZDHHC17 / Fold change vs veh, ZDHHC17 / RFU, NOM1 / Fold change vs veh, NOM1 / RFU, ARL8B / Fold change vs veh, ARL8B / RFU, ZBTB11 / Fold change vs veh, ZBTB11 / RFU, TAMM41 / Fold change vs veh, TAMM41 / RFU, KIAA1704 /// LOC100996395 / Fold change vs veh, KIAA1704 /// LOC100996395 / RFU, ING1 / Fold change vs veh, ING1 / RFU, TRMT61B / Fold change vs veh, TRMT61B / RFU, FUBP3 / Fold change vs veh, FUBP3 / RFU, TP53 / Fold change vs veh, TP53 / RFU, TNKS2 / Fold change vs veh, TNKS2 / RFU, ZFP14 / Fold change vs veh, ZFP14 / RFU, ACTR2 / Fold change vs veh, ACTR2 / RFU, PPP3R1 / Fold change vs veh, PPP3R1 / RFU, PIK3R1 / Fold change vs veh, PIK3R1 / RFU, HNRNPA1 / Fold change vs veh, HNRNPA1 / RFU, RNF170 / Fold change vs veh, RNF170 / RFU, ZNF28 / Fold change vs veh, ZNF28 / RFU, RNGTT / Fold change vs veh, RNGTT / RFU, OGT / Fold change vs veh, OGT / RFU, BRD1 / Fold change vs veh, BRD1 / RFU, MARS / Fold change vs veh, MARS / RFU, ZNF655 / Fold change vs veh, ZNF655 / RFU, FAHD1 / Fold change vs veh, FAHD1 / RFU, BDP1 / Fold change vs veh, BDP1 / RFU, LRRCC1 / Fold change vs veh, LRRCC1 / RFU, ARID1A / Fold change vs veh, ARID1A / RFU, ZNF146 / Fold change vs veh, ZNF146 / RFU, ZNF330 / Fold change vs veh, ZNF330 / RFU, GPN3 / Fold change vs veh, GPN3 / RFU, C9orf123 / Fold change vs veh, C9orf123 / RFU, N4BP2L2 / Fold change vs veh, N4BP2L2 / RFU, ARFIP1 / Fold change vs veh, ARFIP1 / RFU, FAM179B / Fold change vs veh, FAM179B / RFU, BCL10 / Fold change vs veh, BCL10 / RFU, UHRF1BP1L / Fold change vs veh, UHRF1BP1L / RFU, BET1 / Fold change vs veh, BET1 / RFU, CNOT2 / Fold change vs veh, CNOT2 / RFU, ZNF268 / Fold change vs veh, ZNF268 / Fold change vs veh, ZNF507 / RFU, DGCR2 / Fold change vs veh, DGCR2 / RFU, WDSUB1 / Fold change vs veh, WDSUB1 / Fold change vs veh, HSP90B1 /// MIR3652 / RFU, ADSS / Fold change vs veh, ADSS / RFU, GK / Fold change vs veh, GK / RFU, ZNF148 / Fold change vs veh, ZNF148 / RFU, TAF9 / Fold change vs veh, TAF9 / RFU, SLC1A5 / Fold change vs veh, SLC1A5 / RFU, SLMO2 / Fold change vs veh, SLMO2 / RFU, ABCC4 / Fold change vs veh, ABCC4 / RFU, LOC101060439 /// RAP1B / Fold change vs veh, LOC101060439 /// RAP1B / RFU, RFX7 / Fold change vs veh, RFX7 / RFU, GTPBP10 / Fold change vs veh, GTPBP10 / RFU, CNEP1R1 / Fold change vs veh, CNEP1R1 / RFU, BIVM-ERCC5 /// ERCC5 / Fold change vs veh, BIVM-ERCC5 /// ERCC5 / RFU, ILF3 / Fold change vs veh, ILF3 / RFU 11762660_at / Fold change /veh 11762660_at / RFU VCAN (11757783_s_at) / Fold change /veh VCAN (11757783_s_at) / RFU DDX43 (11728927_at) / Fold change /veh DDX43 (11728927_at) / RFU KRT8 (11758188_x_at) / Fold change /veh KRT8 (11758188_x_at) / RFU NKD1 (11759106_at) / Fold change /veh NKD1 (11759106_at) / RFU SRD5A1 (11742802_a_at) / Fold change /veh SRD5A1 (11742802_a_at) / RFU TPSAB1 /// TPSB2 (11721975_s_at) / Fold change /veh TPSAB1 /// TPSB2 (11721975_s_at) / RFU GSTM3 (11746129_a_at) / Fold change /veh GSTM3 (11746129_a_at) / RFU IL23R (11737362_x_at) / Fold change /veh IL23R (11737362_x_at) / RFU TMEM51 (11727254_a_at) / Fold change /veh TMEM51 (11727254_a_at) / RFU PIWIL2 (11732686_x_at) / Fold change /veh PIWIL2 (11732686_x_at) / RFU ORM1 (11744905_x_at) / Fold change /veh ORM1 (11744905_x_at) / RFU CCDC152 (11743942_at) / Fold change /veh CCDC152 (11743942_at) / RFU ECM1 (11717891_a_at) / Fold change /veh ECM1 (11717891_a_at) / RFU IL23R (11748794_a_at) / Fold change /veh IL23R (11748794_a_at) / RFU TNFAIP8L3 (11732012_x_at) / Fold change /veh TNFAIP8L3 (11732012_x_at) / RFU MBOAT4 (11741988_at) / Fold change /veh MBOAT4 (11741988_at) / RFU 11764193_at / Fold change /veh 11764193_at / RFU TMEM53 (11763286_at) / Fold change /veh TMEM53 (11763286_at) / RFU MAGEB2 (11727129_at) / Fold change /veh MAGEB2 (11727129_at) / RFU TMEM200A (11744735_a_at) / Fold change /veh TMEM200A (11744735_a_at) / RFU CCDC152 (11751479_a_at) / Fold change /veh CCDC152 (11751479_a_at) / RFU FAM211A (11726209_a_at) / Fold change /veh FAM211A (11726209_a_at) / RFU RGS16 (11746705_a_at) / Fold change /veh RGS16 (11746705_a_at) / RFU VCAN (11755009_s_at) / Fold change /veh VCAN (11755009_s_at) / RFU RHOB (11743442_s_at) / Fold change /veh RHOB (11743442_s_at) / RFU RGS16 (11720943_a_at) / Fold change /veh RGS16 (11720943_a_at) / RFU RGS16 (11720944_at) / Fold change /veh RGS16 (11720944_at) / RFU, VPS4B / Fold change vs veh, VPS4B / RFU, CREB1 / Fold change vs veh, CREB1 / RFU, DNAJC13 / Fold change vs veh, DNAJC13 / RFU, GNAQ / Fold change vs veh, GNAQ / RFU, CDK5R1 / Fold change vs veh, CDK5R1 / RFU, ZRANB3 / Fold change vs veh, ZRANB3 / RFU, CUL4A / Fold change vs veh, CUL4A / RFU, CCNY / Fold change vs veh, CCNY / RFU, UFL1 / Fold change vs veh, UFL1 / RFU, COG3 / Fold change vs veh, COG3 / RFU, DIAPH2 / Fold change vs veh, DIAPH2 / RFU, SKA2 / Fold change vs veh, SKA2 / RFU, AFF3 / Fold change vs veh, AFF3 / RFU, LMF1 / Fold change vs veh, LMF1 / RFU, IPO11 / Fold change vs veh, IPO11 / RFU, DFFB / Fold change vs veh, DFFB / RFU, FOXP1 / Fold change vs veh, FOXP1 / RFU, CARD8 / Fold change vs veh, CARD8 / RFU, STRN3 / Fold change vs veh, STRN3 / RFU, ADK / Fold change vs veh, ADK / RFU, RASSF2 / Fold change vs veh, RASSF2 / RFU, WIPF1 / Fold change vs veh, WIPF1 / RFU, LARP1B / Fold change vs veh, LARP1B / RFU, RASA1 / Fold change vs veh, RASA1 / RFU, RB1 / Fold change vs veh, RB1 / RFU, PPFIA1 / Fold change vs veh, PPFIA1 / RFU, MAT2A / Fold change vs veh, MAT2A / RFU, CCT5 / Fold change vs veh, CCT5 / RFU, WDR92 / Fold change vs veh, WDR92 / RFU, CUX1 / Fold change vs veh, CUX1 / RFU, TTC7A / Fold change vs veh, TTC7A / RFU, TMEM135 / Fold change vs veh, TMEM135 / RFU, DEPTOR / Fold change vs veh, DEPTOR / RFU, CPM / Fold change vs veh, CPM / RFU, DNAJB6 / Fold change vs veh, DNAJB6 / RFU, CACNA2D3 / Fold change vs veh, CACNA2D3 / RFU, DTX4 / Fold change vs veh, DTX4 / RFU, TFCP2 / Fold change vs veh, TFCP2 / RFU, GMCL1 /// GMCL1P1 / Fold change vs veh, GMCL1 /// GMCL1P1 / RFU, AEBP2 / Fold change vs veh, AEBP2 / RFU, SNHG1 /// SNORD22 /// SNORD25 /// SNORD26 /// SNORD27 /// SNORD28 /// SNORD29 /// SNORD31 / Fold change vs veh, SNHG1 /// SNORD22 /// SNORD25 /// SNORD26 /// SNORD27 /// SNORD28 /// SNORD29 /// SNORD31 / Fold change (Aza/veh), C12orf56 (ProbeSet 11735607_a_at) / Fold change (ACY-1035/veh), C12orf56 (ProbeSet 11735607_a_at) / Fold change (Aza/veh), FGFR1OP (ProbeSet 11751329_s_at) / Fold change (ACY-1035/veh), FGFR1OP (ProbeSet 11751329_s_at) / Fold change (Aza/veh), VPS36 (ProbeSet 11739960_a_at) / Fold change (ACY-1035/veh), VPS36 (ProbeSet 11739960_a_at) / RFU SYPL1 (11715823_x_at) / Fold change /veh SYPL1 (11715823_x_at) / RFU IGFBP7 (11715501_s_at) / Fold change /veh IGFBP7 (11715501_s_at) / RFU REEP3 (11722064_at) / Fold change /veh REEP3 (11722064_at) / RFU IGLL1 (11728026_x_at) / Fold change /veh IGLL1 (11728026_x_at): dose or concentration left out as unconfirmed. The class given is cell-based, human.

`Nc1ccc(-c2cccs2)cc1NC(=O)c1ccc2c(c1)cc(C1CC1)n2CCN1CCOCC1` [ACY-1035]: the “Fold change vs veh, TFRC” value was found to be 0.87.
